Common to all, as to assay type: cell-based, human
The test system of assay [1] is SAMD9 promoter. The experiment in a line: Dual luciferase reporter assay in HeLa cells transiently transfected with SAMD9 promoter construct. As to conditions: transient transfection, IFN-γ 10 ng/ml, 48 hours after transfection (FIG. 1A). An excerpt:
SAMD9 promoter fragments cloned into pGL3 as previously described [Hershkovitz, D. et al. (2011) J Invest Dermatol 131: 662-9], were digested with KpnI and XhoI and subcloned into pGL4.17 [luc2/Neo] (Promega). The expression vector pGL4.17 encodes the luciferase reporter gene luc2 (Photinuspyralis) and contains a mammalian selectable marker for neomycin resistance. For transient transfection, SAMD9 promoter-luciferase constructs were transfected into HeLa cells using lipofectamine 2000 (Invitrogen, Carlsbad, CA) according to the manufacturer's instructions.
Cellular protein was extracted by adding 20 μl of Promega Lysis Buffer (PLB) (Promega) to each sample and incubated for a period of 15 minutes. Cell lysate was analyzed in a 96-well flat white plate (Greiner Bio-One, United Kingdom) where 100 μl of Luciferase Assay Reagent II (LAR II) (Promega) was added to each sample. Luminescence was ascertained using the Infinite M200 multimode microplate reader (Tecan Ltd, Minnedorf, Switzerland). After the initial reading, 100 μl of Stop & GloR Reagent (Promega) were dispensed into tested wells and Renilla luciferase levels were tested. The assay was completed after Luciferase levels were normalized to Renilla levels.
SAMD9 promoter activity was first analyzed using a luciferase reporter assay in HeLa cells. […]
On the technique in general: Reporter assays use an easily measured gene product as a stand-in for the process of interest.

Assay [2] has as its system SAMD9 promoter. The experiment in a line: High-throughput luciferase reporter screen in HeLa line stably expressing 585 bp SAMD9 promoter fragment. The following applies: IFN-γ 10 ng/ml for 24 hours (FIG. 1B).
The subject of assay [3] is SAMD9 promoter. The description is as above. As to conditions: Homo sapiens, HeLa; fold increase in promoter activity by luciferase assay vs cells treated with vehicle only; test drugs 10 μM, 24 hours; read-out: SAMD9 expression fold change in HeLa reporter assay. The method, then: HeLa cell lines stably expressing the constructs were generated under neomycin selection. Briefly, pGL4.17 containing a SAMD9 promoter fragment spanning 585 bp upstream to the TSS and an empty pGL4.17 vector were transfected into HeLa cells. Forty eight hours after transfection, standard medium was replaced with medium containing 600 μg/ml G418 (Sigma-Aldrich), cells were kept under G418 selection and the selective medium was replaced approximately every 2-3 days. After two passages, colonies of stable cells were isolated, expanded and frozen for further use.
Test drugs were dispensed at a concentration of 10 μM by a robotic system into 96-well plates containing 9000 cells/well expressing the pGL4.17 reporter construct carrying a 585 bp SAMD9 promoter fragment operably linked to luciferase gene or the empty pGL4.17 luciferase construct (Promega cat. no. E6721). Medium was removed after 24 hours and the cells subjected to Steady-Glo luciferase lysis-substrate solution assay (Promega) as described above. Liquid handling was done with the Tecan (Tecan) Freedom 150 (Robotic & MCA liquid Handling System) and the luciferase reading was done with a robot integrated Tecan Infinite® M1000 reader.
This cell line was then used to robotically screen a total of 1496 compounds obtained from the National Cancer Institute Diversity Set III and Oncology Drugs Set III small molecule libraries.

The subject of a further assay is SAMD9. The experiment in a line: SAMD9 RNA expression by qRT-PCR in HeLa cells. The following applies: fold increase in RNA gene expression vs cells treated with vehicle only. Here is the method: HeLa cells were cultured in DMEM 4.5 g/l glucose medium containing 10% FCS, 1% L-glutamine and 1% penicillin and streptomycin (Biological Industries) and grown at 37° C. and 5% CO2.
Of note, when cells were incubated with CaCx and ApDx (NCI, MA USA), they were grown in the appropriate medium with 0.1% FCS only.
RNA was extracted from cell cultures using an RNA extraction kit (Roche Diagnostics, Mahheim, Germany). cDNA was synthesized from 500 ng of total RNA using the Verso cDNA kit (Thermo Fisher Scientific, Waltham, MA, USA). cDNA PCR amplification was carried out using the Fast SYBR Green Master Mix in a StepOnePlus™ Real-Time PCR System (Applied Biosystems, Foster City, CA, USA) with gene-specific intron-crossing oligonucleotide pairs listed in Table 1 (below). For quantification, standard curves were obtained using serially diluted cDNA amplified in the same qRT-PCR run. The melting temperature (Tm) of the amplified products was measured to confirm the specificity of the reaction conditions. Cycling conditions were as follows: 95° C. for 10 minutes, 95° C. for 10 seconds, 62° C. for 15 seconds, and 72° C. for 25 seconds for a total of 40 cycles. Each sample was analyzed in triplicate. mRNA expression level for target gene was normalized to GAPDH. The results are based the amount of target, normalized to an endogenous reference (IACTB) and relative to a calibrator, as calculated by 2-ΔΔCT. All samples were run in triplicate. The expression levels of target genes were expressed as mRNA relative units.
The potential ability of these 31 molecules to induce SAMD9 expression in cell cultures was then scrutinized.

Turning to “IFN-γ: interferon-gamma, previously identified as a strong inducer of SAMD9 expression”, in the assay on SAMD9 promoter [1], the “SAMD9 promoter activity (luciferase)” value is reported as “significantly induced”. Moreover, the “Response of stable SAMD9 promoter-luciferase HeLa cell line” value in the assay with SAMD9 promoter [2] is on record as “respond robustly”.

For the compound `CC[C@@]1(O)C[C@H](OC2CC(N(C)C)C(OC3CC(O)C(CC4CC(O)C(O)C(C)O4)C(C)O3)C(C)O2)c2c(cc3c(c2O)C(=O)c2c(O)ccc(O)c2C3=O)[C@H]1C(=O)OC` (stereo partly shown) [Compound 265211, Rhodirubin E], the fold induction at 10 µM in the assay on SAMD9 promoter [3] came to 3.36. The “SAMD9 expression fold change in HeLa cells” value in the assay on SAMD9 is 1.47 fold.

Values taken from patent US12023348B2, “EGR1 targeting molecules for the treatment of inflammatory and hyperproliferative conditions” (The Medical Research, Infrastructure and Health Services …, priority 2015, dated 2024).
